Reference: US9913792B2, “Methods of regulating skin health and appearance with a combination of flavonoid and vitamin B3” (The Procter & Gamble Company, priority 2014, dated 2018)
Several values for one entry are separate records, joined by “and”; a condition that tells them apart may be missing. Equal values may be shown once.

Experiments:
Human dermal fibroblasts = experiment: Extracellular acidification rate (ECAR) of fibroblasts after hydrogen peroxide challenge; type: cell-based
Description: The effect of a combination of a flavonoid compound, a vitamin B3 compound, and a hydrolyzed silk protein on cellular energy production was assessed by measuring the extracellular acidification rate (“ECAR”) of fibroblasts after exposure to hydrogen peroxide challenge (FIG. 2). ECAR provides an indirect measure of glycolysis. Treatment with hydrogen peroxide replicates stress induced by UV radiation or chemical pollution and decreases the ECAR. An XF Extracellular Flux Analyzer (Seahorse Bioscience, North Billerica, Mass.) was used to detect extracellular acidification rate. Human dermal fibroblasts were plated at 1×10^5 cells per well in a 96-well plate 24 hours prior to testing. The plate was loaded into the analyzer and equilibrated according to the manufacturer's instructions. Hydrogen peroxide, quercetin (Tocris Bioscience), GSS (BioSpectrum) and niacinamide were loaded into an automated injection port of the XF cartridge plate. The analyzer was programmed to sequentially run a two-minute mix cycle and a four-minute measurement cycle continuously for at least 108 minutes. Data points were collected and recorded by the analyzer. The analyzer was allowed to complete three cycles to establish a baseline value for glycolysis prior to being exposed to the peroxide solution. […]
[…] The ECAR was calculated as a percent of pre-treatment baseline. […]

human keratinocytes = experiment: Intracellular ATP levels in keratinocytes stressed with H2O2 (ATP Glo luminescence); type: cell-based; conditions: for ATP: luminescent counts; for % Control: ATP
Description: The effects of a flavonoid compound, a vitamin B3 compound, a hydrolyzed silk protein and a combination thereof, on intracellular ATP levels were assessed. Keratinocytes were cultured in T150 flasks in EpiLife® medium (MEPICFPRF500, Life Technologies, Grand Island, N.Y.) supplemented with human keratinocyte growth supplement (S-001-5, Life Technologies) and 1% penicillin/streptomycin (15140-122, Life Technologies). When the keratinocytes reached about 70% confluency, they were plated on 96-well plates at a density of 20,000 cells/well. The plates were incubated for 24 hours before the experimental stressor (H2O2) and treatment (niacinamide and/or GSS, Crosilk™ 1000, Crosilk™ Liquid, or HerbEx Silk Peptides) were applied.
The 96-well plate was divided into groups of wells in which (1) no stressor or treatment was applied, (2) stressor was applied but no treatment, and (3) stressor and treatment were applied. For the no stressor or treatment group, the culture medium was simply refreshed. In combination experiments, stressor and two treatments were applied. […] The plates were returned to the CO2 incubator for 90 minutes before ATP was measured.
ATP was measured by removing the media from all treatment groups and controls and replacing the media with ATP Glo® reagent (Promega, Madison, Wis.) per the manufacturer's instructions. After 10 minutes of exposure at room temperature, the luminescence was measured using an EnVision® plate reader (Perkin Elmer, Waltham, Mass.). The luminescent counts that were the output from the measurement were directly proportional to the ATP levels in the cells.
Replicates of each treatment group were averaged together and standard p-value calculations were used (2-sided, equal variance) to calculate significance. In cases where two treatments appeared to synergistically enhance ATP levels, the observed results were compared to the sum of the individual treatment groups to determine significance. The ATP levels measured following treatment are provided below.

[1] = 250 uM Niacinamide + 880 uM H202

NC(=O)c1cccnc1 [Niacinamide, niacinamide] was tested, and the “ECAR as percent of pre-treatment baseline” value (Human dermal fibroblasts; 1.75 mM hydrogen peroxide, 3% niacinamide alone) was “provided a protective effect and increased the ECAR”, the ATP (human keratinocytes; [1]) was 85645 and 75045 and 80345 and the ATP (human keratinocytes; 0.05% Niacinamide + 800 uM H202, 90 minutes) was 185268. The “% Control” value (human keratinocytes; [1]) was 29.5% and the “% Control” value (human keratinocytes; 0.05% Niacinamide + 800 uM H202) was 43.3%.

With O=c1c(O)c(-c2ccc(O)c(O)c2)oc2cc(O)cc(O)c12 [Quercetin, 2-(3,4-dihydroxyphenyl)-3,5,7-trihydroxy-4H-chromen-4-one] the “rate of glycolysis (ECAR) in stressed cells” value (Human dermal fibroblasts; 1.5 mM hydrogen peroxide, 15 uM quercetin, 90 minutes following treatment (FIG. 1)) was “significantly increase the rate of glycolysis”.
